Remaining binding data for three compounds are collected here from publication PMC6437697 (Journal of Medicinal Chemistry, 2019).

Common to all, as to assay: KINOMEscan
Holding throughout (format): binding
Common to all, as to conditions: read-out: % control activity remaining

For one assay, the target named is T1, AKT3 (Homo sapiens, UniProt Q9Y243).
T1 construct: purchased Eurofins DiscoverX KINOMEscan

For the next assay, the target named is T2, BUB1 (Homo sapiens, UniProt O43683).
T2 construct: purchased Eurofins DiscoverX KINOMEscan

A further assay addresses T3, TTK (Homo sapiens, UniProt P33981).
T3 construct: purchased Eurofins DiscoverX KINOMEscan
T3 sequence (P33981 1-857): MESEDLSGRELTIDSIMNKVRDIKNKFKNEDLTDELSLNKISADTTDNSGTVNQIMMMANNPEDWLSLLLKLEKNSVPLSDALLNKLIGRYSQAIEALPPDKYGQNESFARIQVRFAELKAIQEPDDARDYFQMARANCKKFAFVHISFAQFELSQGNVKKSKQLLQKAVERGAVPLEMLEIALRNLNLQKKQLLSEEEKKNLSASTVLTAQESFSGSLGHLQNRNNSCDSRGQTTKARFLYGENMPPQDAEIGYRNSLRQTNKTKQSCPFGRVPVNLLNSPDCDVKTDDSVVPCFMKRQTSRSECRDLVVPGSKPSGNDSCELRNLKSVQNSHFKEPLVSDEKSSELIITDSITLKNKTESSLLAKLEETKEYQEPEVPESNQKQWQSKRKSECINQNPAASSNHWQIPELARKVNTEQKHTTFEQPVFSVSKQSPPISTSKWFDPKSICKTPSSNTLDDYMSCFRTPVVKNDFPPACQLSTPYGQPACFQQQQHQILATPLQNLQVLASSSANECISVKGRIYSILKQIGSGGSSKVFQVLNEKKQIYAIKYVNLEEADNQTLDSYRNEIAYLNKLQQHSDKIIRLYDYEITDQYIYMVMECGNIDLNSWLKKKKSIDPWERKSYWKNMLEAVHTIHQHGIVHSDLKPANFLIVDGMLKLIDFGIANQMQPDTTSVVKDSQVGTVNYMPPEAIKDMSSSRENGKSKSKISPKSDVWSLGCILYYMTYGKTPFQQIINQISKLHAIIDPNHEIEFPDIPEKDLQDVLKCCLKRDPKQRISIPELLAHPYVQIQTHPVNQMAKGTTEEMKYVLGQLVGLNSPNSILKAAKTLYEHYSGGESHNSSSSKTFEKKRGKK

For another assay, the target named is T4, NEK11 (Homo sapiens, UniProt Q8NG66).
T4 construct: purchased Eurofins DiscoverX KINOMEscan
T4 sequence (Q8NG66 1-645): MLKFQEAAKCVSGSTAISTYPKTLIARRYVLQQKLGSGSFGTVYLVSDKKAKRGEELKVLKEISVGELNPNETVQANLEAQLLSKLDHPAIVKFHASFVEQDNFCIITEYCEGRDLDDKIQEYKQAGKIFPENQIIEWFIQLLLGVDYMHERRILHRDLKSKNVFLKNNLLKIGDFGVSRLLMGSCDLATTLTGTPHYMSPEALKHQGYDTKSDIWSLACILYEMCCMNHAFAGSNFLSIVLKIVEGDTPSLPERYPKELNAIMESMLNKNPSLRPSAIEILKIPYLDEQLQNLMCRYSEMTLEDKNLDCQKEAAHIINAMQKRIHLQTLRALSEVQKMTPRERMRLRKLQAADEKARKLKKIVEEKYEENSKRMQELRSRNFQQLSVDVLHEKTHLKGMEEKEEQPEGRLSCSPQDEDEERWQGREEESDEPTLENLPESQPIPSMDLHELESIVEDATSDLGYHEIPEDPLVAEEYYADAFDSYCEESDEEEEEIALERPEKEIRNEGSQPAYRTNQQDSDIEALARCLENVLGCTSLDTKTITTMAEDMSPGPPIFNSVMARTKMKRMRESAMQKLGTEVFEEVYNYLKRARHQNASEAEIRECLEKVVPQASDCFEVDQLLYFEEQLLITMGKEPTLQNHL

The target in another assay is T5, PIM3 (Homo sapiens, UniProt Q86V86).
T5 construct: purchased Eurofins DiscoverX KINOMEscan

The next assay has as its target T6, TAK1 (Homo sapiens, UniProt O43318).
T6 construct: purchased Eurofins DiscoverX KINOMEscan
T6 sequence (O43318 1-606): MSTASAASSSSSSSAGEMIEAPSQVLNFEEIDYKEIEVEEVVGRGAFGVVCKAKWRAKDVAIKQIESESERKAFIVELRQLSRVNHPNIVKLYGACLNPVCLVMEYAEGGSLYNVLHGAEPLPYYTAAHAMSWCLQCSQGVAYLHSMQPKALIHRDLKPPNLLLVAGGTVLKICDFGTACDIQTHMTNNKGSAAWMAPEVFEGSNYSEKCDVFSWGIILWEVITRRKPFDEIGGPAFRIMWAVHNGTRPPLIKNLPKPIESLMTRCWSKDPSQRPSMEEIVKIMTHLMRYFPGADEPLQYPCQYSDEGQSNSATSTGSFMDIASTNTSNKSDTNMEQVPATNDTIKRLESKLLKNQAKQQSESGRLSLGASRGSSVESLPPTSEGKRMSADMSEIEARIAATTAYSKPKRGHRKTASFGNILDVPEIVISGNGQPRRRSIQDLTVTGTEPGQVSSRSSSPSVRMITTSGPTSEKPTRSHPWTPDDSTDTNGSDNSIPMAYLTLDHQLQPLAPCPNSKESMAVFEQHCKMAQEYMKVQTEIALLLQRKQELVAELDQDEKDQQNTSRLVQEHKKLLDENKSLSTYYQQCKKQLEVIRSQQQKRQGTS

The target in the next assay is T7, TSSK1B (Homo sapiens, UniProt Q9BXA7).
T7 construct: purchased Eurofins DiscoverX KINOMEscan
T7 sequence (Q9BXA7 1-367): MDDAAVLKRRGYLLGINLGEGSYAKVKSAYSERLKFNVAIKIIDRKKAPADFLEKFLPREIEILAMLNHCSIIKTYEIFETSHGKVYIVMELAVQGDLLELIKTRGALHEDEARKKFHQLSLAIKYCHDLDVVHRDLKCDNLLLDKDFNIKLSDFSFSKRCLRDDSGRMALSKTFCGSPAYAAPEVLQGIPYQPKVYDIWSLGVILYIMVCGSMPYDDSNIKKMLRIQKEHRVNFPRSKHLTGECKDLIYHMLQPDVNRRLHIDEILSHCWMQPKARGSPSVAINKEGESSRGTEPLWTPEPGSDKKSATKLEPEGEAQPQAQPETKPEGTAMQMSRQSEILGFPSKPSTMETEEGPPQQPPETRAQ

A further assay addresses T8, MYLK2 (Homo sapiens, UniProt Q9H1R3).
T8 construct: purchased Eurofins DiscoverX KINOMEscan

For the next assay, the target named is T9, CLK4 (Homo sapiens, UniProt Q9HAZ1).
T9 construct: purchased Eurofins DiscoverX KINOMEscan

For a further assay, the target named is T10, KIT(A829P) (Homo sapiens, UniProt P10721, A829P).
T10 construct: purchased Eurofins DiscoverX KINOMEscan

Another assay deals with T11, PIK3CA(E545K) (Homo sapiens, UniProt P42336, E545K).
T11 construct: purchased Eurofins DiscoverX KINOMEscan
T11 sequence (P42336 whole entry E545K): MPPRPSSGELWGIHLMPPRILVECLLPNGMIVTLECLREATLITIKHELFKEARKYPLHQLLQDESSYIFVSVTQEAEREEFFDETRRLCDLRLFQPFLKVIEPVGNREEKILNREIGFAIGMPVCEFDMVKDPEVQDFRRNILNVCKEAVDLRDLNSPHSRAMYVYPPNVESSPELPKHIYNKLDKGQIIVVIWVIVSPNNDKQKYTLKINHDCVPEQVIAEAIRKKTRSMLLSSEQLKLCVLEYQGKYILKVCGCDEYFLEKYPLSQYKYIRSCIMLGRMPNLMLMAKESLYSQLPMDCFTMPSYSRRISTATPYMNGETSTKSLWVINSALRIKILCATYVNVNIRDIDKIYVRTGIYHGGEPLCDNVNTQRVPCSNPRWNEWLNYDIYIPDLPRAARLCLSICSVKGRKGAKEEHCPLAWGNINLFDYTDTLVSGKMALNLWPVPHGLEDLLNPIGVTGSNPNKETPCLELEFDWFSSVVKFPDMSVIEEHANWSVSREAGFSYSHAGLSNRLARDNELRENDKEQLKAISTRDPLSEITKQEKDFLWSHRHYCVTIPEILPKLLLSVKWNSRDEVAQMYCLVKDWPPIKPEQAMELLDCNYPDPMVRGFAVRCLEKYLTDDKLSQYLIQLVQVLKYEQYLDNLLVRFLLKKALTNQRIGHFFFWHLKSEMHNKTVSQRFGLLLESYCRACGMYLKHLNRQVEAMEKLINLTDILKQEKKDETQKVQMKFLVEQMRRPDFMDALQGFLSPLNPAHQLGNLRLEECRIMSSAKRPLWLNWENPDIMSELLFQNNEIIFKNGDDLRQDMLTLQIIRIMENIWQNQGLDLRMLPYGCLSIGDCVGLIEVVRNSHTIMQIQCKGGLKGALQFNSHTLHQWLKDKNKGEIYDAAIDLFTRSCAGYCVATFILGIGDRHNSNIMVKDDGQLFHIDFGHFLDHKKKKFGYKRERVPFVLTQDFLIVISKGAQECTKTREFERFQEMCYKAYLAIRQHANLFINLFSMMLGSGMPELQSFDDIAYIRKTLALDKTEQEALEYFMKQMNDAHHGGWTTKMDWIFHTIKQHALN

T10 sequence (P10721 26-976 A829P): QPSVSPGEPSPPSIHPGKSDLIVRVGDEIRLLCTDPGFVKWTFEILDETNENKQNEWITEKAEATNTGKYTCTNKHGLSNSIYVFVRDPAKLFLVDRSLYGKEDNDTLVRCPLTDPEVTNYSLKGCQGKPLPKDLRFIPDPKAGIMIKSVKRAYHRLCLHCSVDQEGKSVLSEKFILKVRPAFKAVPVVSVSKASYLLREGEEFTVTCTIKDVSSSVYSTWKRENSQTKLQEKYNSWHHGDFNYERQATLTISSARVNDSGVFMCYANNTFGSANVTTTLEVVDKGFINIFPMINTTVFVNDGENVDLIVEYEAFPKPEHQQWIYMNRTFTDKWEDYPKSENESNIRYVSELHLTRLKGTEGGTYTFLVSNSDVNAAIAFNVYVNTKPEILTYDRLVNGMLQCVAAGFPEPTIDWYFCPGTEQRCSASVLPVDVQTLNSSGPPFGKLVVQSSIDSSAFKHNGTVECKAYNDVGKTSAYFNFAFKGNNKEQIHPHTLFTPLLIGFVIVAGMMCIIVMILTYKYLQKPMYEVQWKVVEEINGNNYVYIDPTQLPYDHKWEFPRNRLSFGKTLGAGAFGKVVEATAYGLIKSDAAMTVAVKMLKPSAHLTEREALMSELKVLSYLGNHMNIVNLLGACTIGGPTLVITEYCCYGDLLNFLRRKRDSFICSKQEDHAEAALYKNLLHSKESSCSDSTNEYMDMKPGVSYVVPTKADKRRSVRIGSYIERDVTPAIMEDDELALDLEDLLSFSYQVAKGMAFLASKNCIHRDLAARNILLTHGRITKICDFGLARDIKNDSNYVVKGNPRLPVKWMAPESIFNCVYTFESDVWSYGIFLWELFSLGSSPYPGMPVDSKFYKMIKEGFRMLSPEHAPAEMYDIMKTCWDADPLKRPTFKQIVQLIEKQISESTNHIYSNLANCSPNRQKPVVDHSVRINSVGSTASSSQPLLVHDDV
T1 sequence (Q9Y243 whole entry): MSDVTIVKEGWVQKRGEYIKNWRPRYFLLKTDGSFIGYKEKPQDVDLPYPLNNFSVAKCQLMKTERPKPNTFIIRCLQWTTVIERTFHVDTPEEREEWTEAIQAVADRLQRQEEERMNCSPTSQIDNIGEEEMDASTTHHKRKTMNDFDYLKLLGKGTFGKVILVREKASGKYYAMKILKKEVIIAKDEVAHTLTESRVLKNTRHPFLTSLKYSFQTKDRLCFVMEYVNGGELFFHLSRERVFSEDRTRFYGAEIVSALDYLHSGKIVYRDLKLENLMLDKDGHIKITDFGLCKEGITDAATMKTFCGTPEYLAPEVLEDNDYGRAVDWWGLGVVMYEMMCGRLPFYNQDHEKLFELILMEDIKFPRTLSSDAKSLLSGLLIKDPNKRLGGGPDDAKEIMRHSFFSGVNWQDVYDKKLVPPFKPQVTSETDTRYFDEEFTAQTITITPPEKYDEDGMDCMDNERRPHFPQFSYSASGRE
T9 sequence (Q9HAZ1 whole entry): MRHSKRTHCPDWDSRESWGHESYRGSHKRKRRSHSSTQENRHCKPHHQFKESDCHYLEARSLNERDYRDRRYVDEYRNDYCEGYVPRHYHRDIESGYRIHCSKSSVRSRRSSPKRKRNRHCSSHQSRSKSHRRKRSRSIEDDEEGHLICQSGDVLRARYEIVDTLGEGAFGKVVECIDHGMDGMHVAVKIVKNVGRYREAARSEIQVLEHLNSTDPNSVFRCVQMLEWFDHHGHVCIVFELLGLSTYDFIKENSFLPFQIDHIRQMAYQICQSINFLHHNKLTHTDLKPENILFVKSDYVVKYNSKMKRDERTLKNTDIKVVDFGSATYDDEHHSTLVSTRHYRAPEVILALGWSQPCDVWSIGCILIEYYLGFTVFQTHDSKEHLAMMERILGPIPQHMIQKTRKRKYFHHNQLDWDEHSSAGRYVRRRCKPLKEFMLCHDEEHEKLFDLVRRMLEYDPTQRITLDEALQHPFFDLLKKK
T8 sequence (Q9H1R3 whole entry): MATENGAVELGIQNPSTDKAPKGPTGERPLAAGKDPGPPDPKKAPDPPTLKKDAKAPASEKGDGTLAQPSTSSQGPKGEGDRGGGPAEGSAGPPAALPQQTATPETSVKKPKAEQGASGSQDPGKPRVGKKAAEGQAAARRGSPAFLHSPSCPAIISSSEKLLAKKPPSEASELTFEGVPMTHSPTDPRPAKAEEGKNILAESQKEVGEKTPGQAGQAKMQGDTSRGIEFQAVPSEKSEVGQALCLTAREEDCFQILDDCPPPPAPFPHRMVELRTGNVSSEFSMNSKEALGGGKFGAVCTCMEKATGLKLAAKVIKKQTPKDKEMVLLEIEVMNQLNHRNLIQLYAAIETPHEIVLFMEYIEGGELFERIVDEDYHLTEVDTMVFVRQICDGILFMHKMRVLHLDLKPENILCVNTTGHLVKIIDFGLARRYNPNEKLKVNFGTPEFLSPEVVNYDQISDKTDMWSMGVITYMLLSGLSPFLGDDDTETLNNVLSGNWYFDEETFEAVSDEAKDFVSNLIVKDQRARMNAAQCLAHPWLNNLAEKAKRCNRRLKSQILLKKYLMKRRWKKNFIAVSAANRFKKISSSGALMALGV
T2 sequence (O43683 whole entry): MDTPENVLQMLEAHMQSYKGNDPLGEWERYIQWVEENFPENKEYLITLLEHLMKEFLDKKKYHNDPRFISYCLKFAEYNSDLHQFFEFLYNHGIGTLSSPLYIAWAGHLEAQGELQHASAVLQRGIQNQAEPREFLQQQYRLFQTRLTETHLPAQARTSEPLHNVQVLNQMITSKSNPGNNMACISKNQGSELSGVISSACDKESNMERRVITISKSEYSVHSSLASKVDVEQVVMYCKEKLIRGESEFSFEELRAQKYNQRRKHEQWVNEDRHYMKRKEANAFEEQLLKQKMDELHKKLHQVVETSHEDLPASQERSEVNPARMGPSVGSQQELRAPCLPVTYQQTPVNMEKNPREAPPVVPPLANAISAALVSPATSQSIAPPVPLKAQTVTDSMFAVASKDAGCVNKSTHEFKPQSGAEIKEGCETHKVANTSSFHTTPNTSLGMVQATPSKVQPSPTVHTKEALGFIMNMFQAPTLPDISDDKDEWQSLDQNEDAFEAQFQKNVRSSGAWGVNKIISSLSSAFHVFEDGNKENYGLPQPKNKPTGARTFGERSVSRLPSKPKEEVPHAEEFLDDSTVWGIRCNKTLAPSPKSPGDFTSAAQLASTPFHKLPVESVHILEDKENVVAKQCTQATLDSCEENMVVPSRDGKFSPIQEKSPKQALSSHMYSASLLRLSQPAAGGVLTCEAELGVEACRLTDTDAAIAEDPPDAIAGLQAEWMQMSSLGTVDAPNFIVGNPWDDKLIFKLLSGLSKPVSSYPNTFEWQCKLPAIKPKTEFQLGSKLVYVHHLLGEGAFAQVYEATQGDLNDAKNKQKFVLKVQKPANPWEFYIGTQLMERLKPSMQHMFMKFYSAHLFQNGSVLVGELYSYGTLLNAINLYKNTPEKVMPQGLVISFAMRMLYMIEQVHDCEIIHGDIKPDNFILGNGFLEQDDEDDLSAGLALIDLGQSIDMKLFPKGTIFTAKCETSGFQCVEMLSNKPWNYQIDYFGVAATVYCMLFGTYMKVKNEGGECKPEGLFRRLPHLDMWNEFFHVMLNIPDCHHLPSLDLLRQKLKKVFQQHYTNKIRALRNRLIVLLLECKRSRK

With `Clc1cc(NCC2CC2)c2ncc(-c3ccc4[nH]ncc4c3)n2n1` [compound 2, 6-Chloro-N-(cyclopropylmethyl)-3-(1H-indazol-5-yl)imidazo[1,2-b]pyridazin-8-amine], the remaining binding at 1 µM on AKT3 is 100%; at BUB1 it was 83%; on TTK, 77%; at NEK11, 88%; on PIM3, 95%; at TAK1 it was 91%. The remaining binding at 1 µM at TSSK1B turned out to be 100%; at MYLK2 it was 82%; at CLK4 it was 1.5%; on KIT(A829P) it was 75%; at PIK3CA(E545K) it was 75%.
Consider `O=C(CN1CCOCC1)N[C@H]1CC[C@H](Nc2cc(Cl)nn3c(-c4ccc5[nH]ncc5c4)cnc23)CC1` [compound 26], for which the remaining binding at 1 µM on AKT3 worked out at 100%; at BUB1, 58%; on TTK it was 54%; at NEK11 it was 100%; on PIM3, 71%; on TAK1 it was 47%. Moreover, the remaining binding at 1 µM at TSSK1B came to 92%; at MYLK2, 52%; on CLK4, 2.1%; at KIT(A829P), 45%; on PIK3CA(E545K), 80%.
For `CN1CCC(CNc2cc(Cl)nn3c(-c4cc5nc(Nc6ccccc6)[nH]c5cc4F)cnc23)CC1` [compound 31, 6-Chloro-3-(6-fluoro-2-(phenylamino)-1H-benzo[d]imidazol-5-yl)-N-((1-methylpiperidin-4-yl)methyl)imidazo[1,2-b]pyridazin-8-amine], the remaining binding at 1 µM at AKT3 came to 90%; on BUB1 it was 59%; at TTK it was 90%; on NEK11, 92%; on PIM3, 92%; on TAK1 it was 65%. For the same compound, the remaining binding at 1 µM worked out at 88% on TSSK1B; 89% on MYLK2; 20% on CLK4; 94% on KIT(A829P); 68% on PIK3CA(E545K).
